Read-outs that look alike come from different tables or passages of the source.
Assays:
Format in all cases: cell-based
[1] = tested on: Fusarium graminearum
[2] = tested on: Fusarium graminearum
[3] = tested on: Septoria tritici
[4] = tested on: Mycosphaerella fijiensis
[5] = Table 2B (Dm-AMP1 based libraries), improvement compared to reference defensin protein (Rs-AFP2 for Table 2B [sic])
[6] = Measurement taken at 72 hours after inoculation, fold improvement compared to DmAMP1
[7] = Measurement taken at 144 hours after inoculation, fold improvement compared to DmAMP1
[8] = Table 2C (mixed diversity library), improvement compared to reference defensin protein DmAMP

## NLCERASKTWTGNCGNTKHCDNQCKSWEGAKHGACHVRNGKHKCFCYFNC (Defensin like) [L9-33]
[1]; [5]
  Activity (1): antifungal activity of the NP against Fusarium graminearium: ++ (++ indicates a >5- to 10-fold improvement)
[2]; [6]
  Antifungal activity, Fusarium graminearum (improvement compared to DmAMP1): +++ (+++ indicating >10-fold improvement)
[3]; [7]
  Antifungal activity, Septoria tritici (improvement compared to DmAMP1): +++ (+++ indicating >10-fold improvement)
[4]; [7]
  Antifungal activity, Mycosphaerella fijiensis (improvement compared to DmAMP1): ++ (++ indicating >5- to 10-fold improvement)

## DGVKLCERPSQTWTGNCGNTKHCDKQCKNWEKAKHGACHVRNGKWKCFCYFNC (Defensin like) [L7-457]
[1]; [8]
  Activity (1): antifungal activity of the NP against Fusarium graminearium: +++ (+++ indicates a >10-fold improvement)
[2]; [6]
  Antifungal activity, Fusarium graminearum (improvement compared to DmAMP1): + (+ indicating 1- to 5-fold improvement compared to DmAMP1)
[3]; [7]
  Antifungal activity, Septoria tritici (improvement compared to DmAMP1): + (+ indicating 1- to 5-fold improvement compared to DmAMP1)
[4]; [7]
  Antifungal activity, Mycosphaerella fijiensis (improvement compared to DmAMP1): + (+ indicating 1- to 5-fold improvement compared to DmAMP1)

## NLCERASKTWTGNCGNTKHCDTQCKNWEGAKHGACHVRSGKHKCFCYFNC (Defensin like) [L6-58]
[1]; [5]
  Activity (1): antifungal activity of the NP against Fusarium graminearium: +++ (+++ indicates a >10-fold improvement)
[2]; [6]
  Antifungal activity, Fusarium graminearum (improvement compared to DmAMP1): +++ (+++ indicating >10-fold improvement)
[3]; [7]
  Antifungal activity, Septoria tritici (improvement compared to DmAMP1): + (+ indicating 1- to 5-fold improvement compared to DmAMP1)
[4]; [7]
  Antifungal activity, Mycosphaerella fijiensis (improvement compared to DmAMP1): + (+ indicating 1- to 5-fold improvement compared to DmAMP1)

## DGVKLCEKPSKTWSGHCGNTKHCDTQCRNWEKAKHGACHVRNGKWKCFCYFNC (Defensin like) [L7-392]
[1]; [8]
  Activity (1): antifungal activity of the NP against Fusarium graminearium: +++ (+++ indicates a >10-fold improvement)
[2]; [6]
  Antifungal activity, Fusarium graminearum (improvement compared to DmAMP1): + (+ indicating 1- to 5-fold improvement compared to DmAMP1)
[3]; [7]
  Antifungal activity, Septoria tritici (improvement compared to DmAMP1): + (+ indicating 1- to 5-fold improvement compared to DmAMP1)
[4]; [7]
  Antifungal activity, Mycosphaerella fijiensis (improvement compared to DmAMP1): + (+ indicating 1- to 5-fold improvement compared to DmAMP1)

## DGVKLCERPSQTWSGHCGNTKHCDKQCRNWEGAKHGACHVRNGKWKCFCYFNC (Defensin like) [L7-87]
[1]; [8]
  Activity (1): antifungal activity of the NP against Fusarium graminearium: +++ (+++ indicates a >10-fold improvement)
[2]; [6]
  Antifungal activity, Fusarium graminearum (improvement compared to DmAMP1): +++ (+++ indicating >10-fold improvement)
[3]; [7]
  Antifungal activity, Septoria tritici (improvement compared to DmAMP1): ++ (++ indicating >5- to 10-fold improvement)
[4]; [7]
  Antifungal activity, Mycosphaerella fijiensis (improvement compared to DmAMP1): + (+ indicating 1- to 5-fold improvement compared to DmAMP1)

## NLCERASKTWTGNCGNTKHCDNQCKNWEGAKHGACHVRNGKWKCFCYFNC [L6-21] (Defensin like)
[1]; [5]
  Activity (1): antifungal activity of the NP against Fusarium graminearium: +++ (+++ indicates a >10-fold improvement)
[2]; [6]
  Antifungal activity, Fusarium graminearum (improvement compared to DmAMP1): +++ (+++ indicating >10-fold improvement)
[3]; [7]
  Antifungal activity, Septoria tritici (improvement compared to DmAMP1): +++ (+++ indicating >10-fold improvement)
[4]; [7]
  Antifungal activity, Mycosphaerella fijiensis (improvement compared to DmAMP1): + (+ indicating 1- to 5-fold improvement compared to DmAMP1)

## NLCERASKTWTGNCGNTKHCDTQCKSWESAKHGACHVRSGKHKCFCYFNC (Defensin like) [L3-64]
[1]; [5]
  Activity (1): antifungal activity of the NP against Fusarium graminearium: + (+ indicates a 1- to 5-fold improvement in activity compared to a reference defensin protein)
[2]; [6]
  Antifungal activity, Fusarium graminearum (improvement compared to DmAMP1): +++ (+++ indicating >10-fold improvement)
[3]; [7]
  Antifungal activity, Septoria tritici (improvement compared to DmAMP1): ++ (++ indicating >5- to 10-fold improvement)
[4]; [7]
  Antifungal activity, Mycosphaerella fijiensis (improvement compared to DmAMP1): + (+ indicating 1- to 5-fold improvement compared to DmAMP1)

## DGVKLCEKPSQTWTGNCGNTKHCDTQCRNWEGAKHGACHKRNGKWKCFCYFNC (Defensin like) [L7-427]
[1]; [8]
  Activity (1): antifungal activity of the NP against Fusarium graminearium: ++ (++ indicates a >5- to 10-fold improvement)
[2]; [6]
  Antifungal activity, Fusarium graminearum (improvement compared to DmAMP1): ++ (++ indicating >5- to 10-fold improvement)
[3]; [7]
  Antifungal activity, Septoria tritici (improvement compared to DmAMP1): + (+ indicating 1- to 5-fold improvement compared to DmAMP1)
[4]; [7]
  Antifungal activity, Mycosphaerella fijiensis (improvement compared to DmAMP1): + (+ indicating 1- to 5-fold improvement compared to DmAMP1)

## NLCERASKTWTGNCGNTKHCDTQCKNWEGAKHGACHKRNGKWKCFCYFNC (Defensin like) [L3-42]
[1]; [5]
  Activity (1): antifungal activity of the NP against Fusarium graminearium: +++ (+++ indicates a >10-fold improvement)
[2]; [6]
  Antifungal activity, Fusarium graminearum (improvement compared to DmAMP1): +++ (+++ indicating >10-fold improvement)
[3]; [7]
  Antifungal activity, Septoria tritici (improvement compared to DmAMP1): ++ (++ indicating >5- to 10-fold improvement)
[4]; [7]
  Antifungal activity, Mycosphaerella fijiensis (improvement compared to DmAMP1): + (+ indicating 1- to 5-fold improvement compared to DmAMP1)

## NLCERASKTWTGNCGNTKHCDTQCKSWEGAKHGACHVRNGKHKCFCYFNC (Defensin like) [L6-71]
[1]; [5]
  Activity (1): antifungal activity of the NP against Fusarium graminearium: +++ (+++ indicates a >10-fold improvement)
[2]; [6]
  Antifungal activity, Fusarium graminearum (improvement compared to DmAMP1): +++ (+++ indicating >10-fold improvement)
[3]; [7]
  Antifungal activity, Septoria tritici (improvement compared to DmAMP1): + (+ indicating 1- to 5-fold improvement compared to DmAMP1)
[4]; [7]
  Antifungal activity, Mycosphaerella fijiensis (improvement compared to DmAMP1): + (+ indicating 1- to 5-fold improvement compared to DmAMP1)

## DGVKLCERASQTWTGHCGNTKHCDNQCRNWEGAKHGACHKRNGKWKCFCYFNC (Defensin like) [L7-337]
[1]; [8]
  Activity (1): antifungal activity of the NP against Fusarium graminearium: ++ (++ indicates a >5- to 10-fold improvement)
[2]; [6]
  Antifungal activity, Fusarium graminearum (improvement compared to DmAMP1): +++ (+++ indicating >10-fold improvement)
[3]; [7]
  Antifungal activity, Septoria tritici (improvement compared to DmAMP1): + (+ indicating 1- to 5-fold improvement compared to DmAMP1)
[4]; [7]
  Antifungal activity, Mycosphaerella fijiensis (improvement compared to DmAMP1): ++ (++ indicating >5- to 10-fold improvement)

## DGVKLCERASQTWSGHCGNTKHCDNQCKSWEKAKHGACHVRSGKHKCFCYFNC (Defensin like) [L7-58]
[1]; [8]
  Activity (1): antifungal activity of the NP against Fusarium graminearium: +++ (+++ indicates a >10-fold improvement)
[2]; [6]
  Antifungal activity, Fusarium graminearum (improvement compared to DmAMP1): + (+ indicating 1- to 5-fold improvement compared to DmAMP1)
[3]; [7]
  Antifungal activity, Septoria tritici (improvement compared to DmAMP1): + (+ indicating 1- to 5-fold improvement compared to DmAMP1)
[4]; [7]
  Antifungal activity, Mycosphaerella fijiensis (improvement compared to DmAMP1): + (+ indicating 1- to 5-fold improvement compared to DmAMP1)

## NLCERASKTWTGNCGNTKHCDNQCRNWEGAKHGACHKRSGKWKCFCYFNC (Defensin like) [L9-15]
[1]; [5]
  Activity (1): antifungal activity of the NP against Fusarium graminearium: +++ (+++ indicates a >10-fold improvement)
[2]; [6]
  Antifungal activity, Fusarium graminearum (improvement compared to DmAMP1): ++ (++ indicating >5- to 10-fold improvement)
[3]; [7]
  Antifungal activity, Septoria tritici (improvement compared to DmAMP1): ++ (++ indicating >5- to 10-fold improvement)
[4]; [7]
  Antifungal activity, Mycosphaerella fijiensis (improvement compared to DmAMP1): + (+ indicating 1- to 5-fold improvement compared to DmAMP1)

## NLCERASKTWTGNCGNTKHCDNQCKNWEGAKHGACHVRNGKWKCFCYFNC [L6-41] (Defensin like)
[1]; [5]
  Activity (1): antifungal activity of the NP against Fusarium graminearium: +++ (+++ indicates a >10-fold improvement)
[2]; [6]
  Antifungal activity, Fusarium graminearum (improvement compared to DmAMP1): + (+ indicating 1- to 5-fold improvement compared to DmAMP1)
[3]; [7]
  Antifungal activity, Septoria tritici (improvement compared to DmAMP1): + (+ indicating 1- to 5-fold improvement compared to DmAMP1)
[4]; [7]
  Antifungal activity, Mycosphaerella fijiensis (improvement compared to DmAMP1): + (+ indicating 1- to 5-fold improvement compared to DmAMP1)

## DGVKLCERASQTWTGHCGNTKHCDNQCKNWEGAKHGACHKRSGKWKCFCYFNC (Defensin like) [L7-176]
[1]; [8]
  Activity (1): antifungal activity of the NP against Fusarium graminearium: +++ (+++ indicates a >10-fold improvement)
[2]; [6]
  Antifungal activity, Fusarium graminearum (improvement compared to DmAMP1): + (+ indicating 1- to 5-fold improvement compared to DmAMP1)
[3]; [7]
  Antifungal activity, Septoria tritici (improvement compared to DmAMP1): + (+ indicating 1- to 5-fold improvement compared to DmAMP1)
[4]; [7]
  Antifungal activity, Mycosphaerella fijiensis (improvement compared to DmAMP1): + (+ indicating 1- to 5-fold improvement compared to DmAMP1)

## NLCERASKTWSGNCGNTKHCDNQCRNWEGAKHGACHKRSGKWKCFCYFNC (Defensin like) [L9-30]
[2]
  Antifungal activity, Fusarium graminearum (improvement compared to DmAMP1): ++ (key: + indicating 1- to 5-fold improvement compared to DmAMP1; ++ indicating >5- to 10-fold improvement; +++ indicating >10-fold improvement)
[3]
  Antifungal activity, Septoria tritici (improvement compared to DmAMP1): + (key: + indicating 1- to 5-fold improvement compared to DmAMP1; ++ indicating >5- to 10-fold improvement; +++ indicating >10-fold improvement)
[4]
  Antifungal activity, Mycosphaerella fijiensis (improvement compared to DmAMP1): + (key: + indicating 1- to 5-fold improvement compared to DmAMP1; ++ indicating >5- to 10-fold improvement; +++ indicating >10-fold improvement)

## NLCEKASKTWTGNCGNTKHCDTQCRNWEGAKHGACHKRNGKWKCFCYFNC (Defensin like) [L6-32]
[2]
  Antifungal activity, Fusarium graminearum (improvement compared to DmAMP1): +++ (key: + indicating 1- to 5-fold improvement compared to DmAMP1; ++ indicating >5- to 10-fold improvement; +++ indicating >10-fold improvement)
[3]
  Antifungal activity, Septoria tritici (improvement compared to DmAMP1): +++ (key: + indicating 1- to 5-fold improvement compared to DmAMP1; ++ indicating >5- to 10-fold improvement; +++ indicating >10-fold improvement)
[4]
  Antifungal activity, Mycosphaerella fijiensis (improvement compared to DmAMP1): +++ (key: + indicating 1- to 5-fold improvement compared to DmAMP1; ++ indicating >5- to 10-fold improvement; +++ indicating >10-fold improvement)

## NLCERASKTWTGNCGNTKHCDNQCRNWEGAAHGACHVRSGKHKCFCYFNC (Defensin like) [L6-85]
[2]
  Antifungal activity, Fusarium graminearum (improvement compared to DmAMP1): +++ (key: + indicating 1- to 5-fold improvement compared to DmAMP1; ++ indicating >5- to 10-fold improvement; +++ indicating >10-fold improvement)
[3]
  Antifungal activity, Septoria tritici (improvement compared to DmAMP1): + (key: + indicating 1- to 5-fold improvement compared to DmAMP1; ++ indicating >5- to 10-fold improvement; +++ indicating >10-fold improvement)
[4]
  Antifungal activity, Mycosphaerella fijiensis (improvement compared to DmAMP1): + (key: + indicating 1- to 5-fold improvement compared to DmAMP1; ++ indicating >5- to 10-fold improvement; +++ indicating >10-fold improvement)

Source: patent US7785828B1 (priority 2003, dated 2010)
